In brackets after ≈: the same amount, converted by molar mass. Blank lines part the entries; values can stand above or below the compound they belong to.
Tests used:
DNA topoisomerase 1 = target: T1, DNA topoisomerase 1 (Homo sapiens, UniProt P11387); assay: Inhibition of recombinant human topoisomerase-1-mediated relaxation of supercoiled pRYG DNA after 30 mins by ethidium bromide staining based assay
T1 sequence (P11387 whole entry): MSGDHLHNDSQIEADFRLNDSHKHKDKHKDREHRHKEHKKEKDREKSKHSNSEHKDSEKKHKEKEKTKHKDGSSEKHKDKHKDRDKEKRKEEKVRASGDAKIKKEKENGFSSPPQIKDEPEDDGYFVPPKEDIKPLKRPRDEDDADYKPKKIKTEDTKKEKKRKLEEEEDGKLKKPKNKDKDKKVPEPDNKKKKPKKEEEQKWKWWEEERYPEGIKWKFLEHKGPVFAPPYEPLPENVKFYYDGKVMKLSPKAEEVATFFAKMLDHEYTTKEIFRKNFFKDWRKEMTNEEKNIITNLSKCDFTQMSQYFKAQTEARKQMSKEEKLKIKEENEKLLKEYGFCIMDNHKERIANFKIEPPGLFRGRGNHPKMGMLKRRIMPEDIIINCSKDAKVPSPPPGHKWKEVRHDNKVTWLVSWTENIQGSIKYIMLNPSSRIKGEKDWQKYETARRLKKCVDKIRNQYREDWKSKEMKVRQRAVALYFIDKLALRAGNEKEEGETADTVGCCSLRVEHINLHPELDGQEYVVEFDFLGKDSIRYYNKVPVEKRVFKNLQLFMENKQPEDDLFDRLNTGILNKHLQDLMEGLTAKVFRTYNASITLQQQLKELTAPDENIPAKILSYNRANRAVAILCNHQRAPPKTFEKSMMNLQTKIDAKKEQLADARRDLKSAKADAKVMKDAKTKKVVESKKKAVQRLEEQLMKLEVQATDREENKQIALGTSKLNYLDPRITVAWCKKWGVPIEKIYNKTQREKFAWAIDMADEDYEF

HeLa = assay: Induction of apoptosis in human HeLa cells; format: functional, cell-based
[1] = Inhibition of RANKL/tumour necrosis factor alpha-induced formation of osteoclasts (unknown origin) by tartrate-resistant acid phosphatase staining based assay; format: functional
RAW264.7 = assay: Cytotoxicity against mouse RAW264.7 cells assessed as reduction in cell viability by WST-1 assay; format: functional
[2] = target: Signal transducer and activator of transcription 3 (Homo sapiens) (UniProt P40763); assay: Inhibition of IL-6-stimulated STAT3 (unknown origin) phosphorylation preincubated for 4 hrs followed by IL-6 addition measured after 24 hrs by luciferase reporter gene assay
Chain of Signal transducer and activator of transcription 3 (Homo sapiens) (P40763 whole entry): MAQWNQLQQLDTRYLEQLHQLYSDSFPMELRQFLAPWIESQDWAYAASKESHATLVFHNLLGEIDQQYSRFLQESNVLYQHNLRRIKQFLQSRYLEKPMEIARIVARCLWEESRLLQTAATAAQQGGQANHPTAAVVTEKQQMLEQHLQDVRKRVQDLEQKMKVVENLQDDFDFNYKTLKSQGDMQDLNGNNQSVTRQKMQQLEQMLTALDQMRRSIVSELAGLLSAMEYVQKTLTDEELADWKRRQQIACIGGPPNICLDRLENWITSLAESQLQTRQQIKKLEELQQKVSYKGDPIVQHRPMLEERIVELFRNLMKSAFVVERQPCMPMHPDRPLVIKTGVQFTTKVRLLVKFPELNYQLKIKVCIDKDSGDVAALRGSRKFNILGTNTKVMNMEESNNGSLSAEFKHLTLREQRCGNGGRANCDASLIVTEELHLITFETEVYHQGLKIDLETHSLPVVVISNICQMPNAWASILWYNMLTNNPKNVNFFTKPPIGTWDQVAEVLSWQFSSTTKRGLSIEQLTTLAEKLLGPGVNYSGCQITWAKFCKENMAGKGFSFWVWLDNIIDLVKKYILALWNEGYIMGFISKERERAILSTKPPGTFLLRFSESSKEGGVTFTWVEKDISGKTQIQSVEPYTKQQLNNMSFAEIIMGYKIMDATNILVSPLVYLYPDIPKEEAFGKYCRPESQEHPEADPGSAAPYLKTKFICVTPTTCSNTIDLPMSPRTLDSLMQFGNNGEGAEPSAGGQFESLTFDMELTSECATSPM

HepG2 = assay: Cytotoxicity against human HepG2 cells assessed as reduction in cell viability after 24 hrs by MTT assay; format: functional; settings: HepG2, 24 h
[3] = Tmax in Sprague-Dawley rat at 300 mg/kg, po by LC-ESI-IT-TOF/MS analysis; format: ADME, organism-based; settings: in vivo
Osteoclast = assay: Inhibition of calcitriol-induced formation of Sprague-Dawley rat osteoclasts by […]; format: functional
[4] = Inhibition of human T9A4 cells assessed as reduction in cholesterol synthesis after 30 mins in presence of [14C]acetate, [14C]mevanolate, 24,25-dihydro-[24,25-3H2]lanosterol, [3-3H]lathosterol by acetate incorporation assay; format: functional

IC50 (DNA topoisomerase 1): 25 µM
Structure (SMILES): CC(=O)O[C@H]1C[C@H]([C@H](C)CC/C=C(\C)C(=O)O)[C@@]2(C)CC=C3C(=CC[C@H]4C(C)(C)[C@H](O)CC[C@]34C)[C@]12C

Structure (SMILES): C[C@H](CC(=O)C[C@H](C)C(=O)O)[C@H]1CC(=O)[C@@]2(C)C3=C(C(=O)C[C@]12C)[C@@]1(C)CCC(=O)C(C)(C)[C@@H]1C[C@@H]3O
IC50 (HeLa): 17.3 µM
IC50 [1]: 400 µM
CC50 (RAW264.7): > 400 µM

MIC [2]: 60 µM (≈ 31 µg/mL)
Structure (SMILES): C[C@H](CC(=O)C[C@@H](C)[C@H]1C[C@H](O)[C@@]2(C)C3=C(C(=O)C[C@]12C)[C@@]1(C)CCC(=O)C(C)(C)[C@@H]1C[C@@H]3O)C(=O)O [GANODERIC ACID A]
CC50 (HepG2): 80 µM

Structure (SMILES): C[C@H](CC(=O)C[C@@H](C)[C@H]1C[C@H](O)[C@@]2(C)C3=C(C(=O)C[C@]12C)[C@@]1(C)CC[C@H](O)C(C)(C)[C@@H]1C[C@@H]3O)C(=O)O [GANODERIC ACID C2]
Tmax [3]: 3.9 min

Structure (SMILES): C/C(=C/CC[C@@H](C)[C@H]1CC[C@@]2(C)C3=C(CC[C@]12C)[C@@]1(C)CCC(=O)C(C)(C)[C@@H]1CC3=O)C(=O)O [GANODERIC ACID DM]
IC50 [1]: 30 µM
MIC (Osteoclast): 10 µg/mL (≈ 21.3 µM)
CC50 (RAW264.7): 65 µM

Structure (SMILES): C/C(=C\CC[C@@H](C)[C@H]1CC[C@@]2(C)C3=CC[C@H]4C(C)(C)[C@@H](O)CC[C@]4(C)C3=CC[C@]12C)C(=O)O [GANODERIC ACID Y]
IC50 [4]: 1.4 µM

Source: ChEMBL document CHEMBL4346720, “Review of the molecular mechanisms of Ganoderma lucidum triterpenoids: Ganoderic acids A, C2, D, F, DM, X and Y” (Eur J Med Chem, 2019)
